Several values for one entry are separate records, joined by “and”; a condition that tells them apart may be missing. Equal values may be shown once. Read-outs that look alike come from different tables or passages of the source.
Assays:
[1] = system: DLD1 tumors; test: Subcutaneous xenograft tumor growth; type: in vivo, Swiss nu/nu mice
Description: All procedures including animal use were performed in accordance with the Institutional Ethical Committee of Animal Care in Geneva and the Swiss Cantonal Veterinary Office (Authorization number GE‐136‐19). Briefly, female and male Swiss nu/nu mice aged 6–8 weeks were obtained from Charles River (Écully, France). For subcutaneous xenografts mice were inoculated in the left flank with 5x10^6 DLD1 or SW620 cells suspended in 100 µL of cell culture medium, supplemented with 1% FBS.
Drugs were administered through oral gavage based on average body weight of the males (100 µL/mouse) and females (80 µL/mouse) at various concentrations, see Tables S10 and S11.
Solution A: step (1) 30% PEG 400 + 5% propylene glycol + 0.5% Tween 80 and (2) 64.5% sterile H2O. Solution B: step (1) 10% DMSO, (2) 30% PEG 300 + 5% Tween 80 and (3) 55% sterile H2O. […] FOLFOX was administered as 6 mg/kg oxaliplatin two hours before administration of 90 mg/kg leucovorin and 50 mg/kg (DLD1) or 25 mg/kg (SW620) 5‐fluorouracil at day 1 and a repeat of 5‐fluorouracil dosing on day 2.
The Bliss independence model can be used to evaluate the drug interaction potential of a drug mixture. […] The model is based on the probability theory and requires the drug activity of each drug at the selected dose to predict the inhibition rate (IR) at additive doses.

[2] = Pharmacokinetics, dried blood spot LC-MS/MS, mice with DLD1 tumors; type: in vivo; details: for Tmax / AUC(0-t) / Cmax: Swiss Nu/nu, mouse, whole blood (dried blood spot), po, regorafenib 15, erlotinib 12.5, selumetinib 5, vemurafenib 75 mg/kg; for AUC(0-t) / Cmax: whole blood, mean ± SD; for AUC(0-t): oral, read-out: AUC0-24h
Description: The pharmacokinetic (PK) study was performed using the dried blood spot method. Mice were treated with CTRL, ODCs, and corresponding monotherapies as described above. To determine the disposition in blood in the first 24h, blood samples (5 µL/mouse) were collected from the tail vein (n = 4 mice) at 2h, 4h, 8h, and 24h time points and transferred onto paper (a filter paper 903 protein saver card from Whatman (MA, USA)). A disk with the entire spot was punched from the paper card and transferred to the HPLC vial tube. Hundred µL of MeOH containing a mix of internal standards was added, and the tube was vortex‐mixed for about 1 min before injecting 10 µL into the LC‐MS/MS system. The LC‐MS/MS system consisted of an API 4,000 triple quadrupole mass spectrometer (AB sciex, Concord, ON, Canada) controlled by analyst 1.6.1 software. The mass spectrometer was operated in the multiple reaction monitoring (MRM) mode with positive electrospray ionization. The instrument was coupled with an Agilent series 1100 (Waldbronn, Germany) LC system. Chromatography was performed on a Phenomenex Kinetex C18 analytical column (50 mm x 2.1 mm, 2.6 um; Torrance, CA, USA). The flow rate was 0.5 mL/min using gradient elution conditions. The method was fully validated before application to this pharmacokinetic study.

[3] = Serum and intratumor drug concentration at experimental endpoint, DLD1 model; type: in vivo, mice; details: for concentration at 1 h / Kp at 1 h: Swiss Nu/nu, mouse, oral; for concentration at 1 h: 1h post-treatment at endpoint (day 15); for Kp at 1 h: tumor vs serum, read-out: ratio tumor vs serum; for Kp at 1 h / ratio ODC vs single drug: DLD1 model
Description: At the experimental endpoint, plasma and tumors were collected 1h post‐treatment and part of the tumor tissue was used to determine the intratumor drug concentrations. Plasma and tumor samples were analyzed using the same LC‐MS/MS method used for drug determination in DBS. Before analysis, tumor tissues were homogenized in a 1 mL mixture of water/acetonitrile (30/70). Hundred uL of homogenates were transferred into new tubes and 50 µL of acetonitrile, as well as 50 µL of a mix of internal standards in MeOH were added. Tubes were vortexed and centrifuged for 10 min at 9,000 rpm. The supernatant (100 µL) was evaporated under nitrogen and reconstituted in 100 µL of acetonitrile with 0.1% formic acid/water with 0.1% formic acid (30/70). 10 µL was then injected into the LC‐MS/MS system. Plasma samples were spotted onto the same paper used for whole blood analysis and were extracted and analyzed using the same methods as used for DBS.

[4] = Clinical plasma pharmacokinetics in patients, plasma concentration limit calculation; type: in vivo; details: average plasma concentration calculated from AUC0-24h in patients
Description: To select for clinically relevant doses, the clinically attainable drug concentration measured in the blood plasma of patients after treatment is used to calculate the concentration limit for in vitro experiments. […] The average drug concentration is calculated from the AUC0–24h and is implemented as the plasma concentration limit (PCL) which drug dose selection must remain below for in vitro experiments. If a drug is FDA approved, the AUC0–24h selected is the one corresponding to the recommended dose in clinical practice. If a drug is in clinical trials, the AUC0–24h selected is the one corresponding to the maximum tolerated dose in early stage clinical trials. Note, experiments were conducted with the most current PCL calculated from the AUC0–24h information available at the start of experiments (December 2017), see Table S4.

[5] = 0-24h; ref EPAR WC00033991; cited from earlier work
[6] = erlotinib 5 mg/kg, Exp 1, Day 11
[7] = erlotinib 12.5 mg/kg, Exp 1, Day 11
[8] = erlotinib 12.5 mg/kg, Exp 5, Day 16
[9] = erlotinib 12.5 mg/kg, Exp 7, Day 15
[10] = given as part of DLD1-specific ODC

C#Cc1cccc(Nc2ncnc3cc(OCCOC)c(OCCOC)cc23)c1 [erlotinib]
% CTRL (tumor volume) [1, 6]: 104 72 27 % CTRL
Volume [1, 6]: 482 336 127 mm^3
% CTRL (tumor volume) [1, 7]: 87 35 13 % CTRL
Volume [1, 7]: 405 161 61 mm^3
% CTRL (tumor volume) [1, 8]: 66 28 12 % CTRL
Volume [1, 8]: 420 178 80 mm^3
% CTRL (tumor volume) [1, 9]: 98 44 22 % CTRL
Volume [1, 9]: 420 211 86 mm^3
Tmax [2, 10]: 2 h
AUC(0-t) [2, 10]: 22300 ± 5140 ng·h/mL
Cmax [2, 10]: 3370 ± 2160 ng/mL
Tmax ([2]; mono): 2 h
AUC(0-t) ([2]; mono): 19600 ± 7660 ng·h/mL
Cmax ([2]; mono): 2610 ± 860 ng/mL
increase of AUC as part of the ODC vs single-drug treatment ([2]; mice with DLD1 tumors, AUC0-24h): 1.14 x
concentration at 1 h ([3]; serum, as part of ODC, regorafenib 15, erlotinib 12.5, selumetinib 5, vemurafenib 75 mg/kg, read-out: concentration serum): 3040 ± 910 ng/mL
concentration at 1 h ([3]; serum, single drug, regorafenib 15, erlotinib 12.5, selumetinib 5, vemurafenib 75 mg/kg, read-out: concentration serum): 2330 ± 180 ng/mL
concentration at 1 h ([3]; tumor (DLD1), as part of ODC, DLD1 tumor, doses as E156, read-out: concentration tumor): 7600 ± 3200 ng/g
concentration at 1 h ([3]; tumor (DLD1), single drug, DLD1 tumor, doses as E156, read-out: concentration tumor): 3620 ± 140 ng/g
Kp at 1 h ([3]; as part of ODC): 2.5
Kp at 1 h ([3]; single drug): 1.55
ratio ODC vs single drug ([3]; serum): 1.31
ratio ODC vs single drug ([3]; tumor): 2.10
PCL (plasma concentration limit) [4]: 1.61 µM and 1.6 µM
AUC [5]: 15.2 mg*h/L EPAR WC00033991

From article PMC7607171, “Optimized low‐dose combinatorial drug treatment boosts selectivity and efficacy of colorectal carcinoma treatment” (Molecular Oncology, 2020)
